Reference: PMC4467156, “A new chemical inhibitor of angiogenesis and tumorigenesis that targets the VEGF signaling pathway upstream of Ras” (Oncotarget, 2015)

Assays:
[1] = tested on: 3T3-GFP cells; assay: Scratch wound closure assay, 3T3-GFP; type: cell-based; settings: wound closure after 24 h, 10% FCS, tested 3.125 μM to 100 μM
Source text: Using this assay, we screened the academic library of the University of Grenoble, which is composed of 1360 original molecules. Setting the threshold of significant responses at 75% of the maximal inhibition, we identified 80 inhibitory molecules. At this stage, we reasoned that molecules that would affect the cytoskeleton dynamics or the adhesion properties of any cell type would be positive in this assay but would not represent good candidates for further development. We thus decided to perform a secondary counterscreen of the first 80 selected compounds on GFP-expressing 3T3 fibroblasts (3T3-GFP) using the same scratch assay. We then focused our interest on the 5 molecules that inhibited more strongly HMEC-GFP than 3T3-GFP wound healing. […] We synthesized a series of 30 analogs and tested them at various concentrations both on HMEC-GFP and 3T3-GFP cells. […] Dansyl and naphthalimide aromatic groups, found in COB223 and COB227 respectively, appeared very efficient. The presence of the diaminomethyl group on dansyl is critical for the activity of COB223 as shown by the lower efficiency of COB235 (IC50 is 8 times higher than that of COB223). COB223 and COB227 contain a tert-butyloxycarbonyl function (BOC group) as a second hydrophobic group. Replacement of BOC by an amino group decreased the efficiency and the specificity (compare 05-102-L-B09 vs 05-06-L-D03, or COB227 vs COB228).
(§1) Confluent cell monolayers were wounded with a plastic pipet tip, washed gently with phosphate buffer saline (PBS) and treated with complete media containing molecules, as indicated. Cells were placed at 37°C into the incubator and photographed at indicated times. Quantitation of closure of the monolayer was performed using the NIH Image J program (http://rsbweb.nih.gov/ij/). Results are expressed as percentage of wound closure at t = 24 h as compared to the initial wound at t = 0 h.

[2] = tested on: HMEC-GFP cells; assay: Scratch wound closure assay, HMEC-GFP; type: cell-based, human; settings: Homo sapiens; wound closure after 24 h, 10% FCS, tested 3.125 μM to 100 μM
Source text: In order to adapt the endothelial scratch wounding assay to the constraints of high throughput screening, we decided to use an endothelial cell line rather than primary cultures for the sake of reproducibility. Since angiogenesis is triggered by capillary endothelial cells, we selected the HMEC-1 cell line which consists of human dermal microvascular endothelial cells stably expressing SV40 […] antigen. We infected this cell line with GFP-encoding retroviral particles and selected one clone (thereafter named HMEC-GFP) that presented a high level of fluorescence and a strong proliferation rate (doubling time in the presence of serum: 22 h). We controlled that GFP expression was stable over at least 50 passages and that these cells still expressed endothelial markers such as VE-cadherin and CD31. In a standard assay, HMEC-GFP cells were grown until confluence in 96-well plates in the presence of serum, scratched with the multi-tip dispenser of the HTS automat, gently rinsed twice to eliminate detached cells and cell debris that could liberate inflammatory and potentially angiogenic cytokines, and incubated for 24 h in the presence of serum and the compounds to be tested. Each well was photographed at time 0 h (after wounding) and 24 h under a motorized epifluorescence microscope and the digitized images were analyzed using Image J to determine the percentage of wound closure (Figure 1A, 1B). Under our standard conditions, the closure rate was 72 ± 4% in the positive controls and 27 ± 4.% in the negative controls.
as §1

[3] = Water solubility; type: physicochemical
[4] = tested on: HUVEC cells; assay: Scratch assay on HUVEC with or without mitomycin C; type: cell-based, human; settings: HUVEC pretreated 24 h with 2 μg/mL mitomycin C
Protocol: as §1, with “0 h. […]” for “0 h.”
www.impactjournals.com/oncotarget/ Oncotarget, Supplementary Materials 2015 […]
Figure S1: Effect of COB223 on endothelial cell migration. (A) Scratch assay: Confluent HUVEC cells were pretreated for 24 h without (CTL) or with 2 μg/mL of mitomycin C before a wound was made in the cell monolayer. After wounding, cells were incubated at 37°C in the absence or the presence of 25 μM COB223. Wound closure was measured after 24 h and 48 h of incubation as described in Material and Methods. […]
(B) Boyden chamber assay: The technique is described in Material and Methods. We measured the passage of fluorescently labeled HUVEC cells through a 3 μm-porous membrane in response to fetal calf serum used as a chemo-attractant. […] The Figure represents the mean fluorescence ± SD of duplicate determinations after 24 h or 48h of incubation from two independent experiments. […]

[5] = tested on: HUVEC cells; assay: 3H-thymidine incorporation, HUVEC; type: cell-based, human; settings: mitomycin C-treated cells vs untreated, data not shown
Protocol: Cells were treated with molecules in complete medium. After 22 h, 1 μCi per well H^3 thymidine was added for 2 hours. Cells are then fixed by 10% trichloroacetic acid and harvested with 0.2N NaOH, 1% SDS. Radioactivity was measured in a beta counter.

Row | Structure (SMILES) | IC50 [1] [µM] | melting point [°C] | IC50 [2] [µM] | water solubility [3] | wound healing [4] | 3H-thymidine incorporation [5]
1 | CN(C)c1cccc2c(S(=O)(=O)NCCCNS(=O)(=O)c3cccc4c(N(C)C)cccc34)cccc12 [Compound 05-06-F11, 1,3-bis [5-(Dimethylamino)naphthalene-1-sulfonamido] diaminopropane] | 40 | 90 | 15 | lack of water solubility | – | –
2 | CN(C)c1cccc2c(S(=O)(=O)NCCOCCOCCNS(=O)(=O)c3cccc4c(N(C)C)cccc34)cccc12 [COB295, 5-Dimethylamino-N-(2-[2-{2-(5-(dimethylamino)naphthalene-1-sulfonamido)ethoxy}ethoxy]ethyl)naphthalene-1-sulfonamide] | – | – | 5 | lack of water solubility | – | –
3 | CO[C@@]12[C@H](COC(N)=O)C3=C(C(=O)C(C)=C(N)C3=O)N1C[C@@H]1N[C@@H]12 [mitomycin C, reference compound] | – | – | – | – | slowed down | complete inhibition
